Experimental data: US20070276025A1, “Indirubin-Type Compounds, Compositions, and Methods for Their Use” (priority 2003, published 2007)
Where two headings read alike, the source gives them in different places.

How the values were obtained:
CDK5/p35 = CDK5/p35 (Homo sapiens, UniProt Q00535); set-up: made in house; conditions: Hoessel et al. (1999); cited from earlier work
CDK5/p25 = CDK5/p25 (Homo sapiens, UniProt Q00535); assay: CDK5/p25 kinase assay (histone H1, 15 μM ATP); type: biochemical, mammalian; conditions: read-out: IC50 CDK5/p25
GSK-3 [1] = assay: β-catenin stabilization in AhR- or ARNT-deficient Hepa cell lines (Western blot); conditions: 10 μM BIO, 50 μM MeBIO, 24 hrs
[2] = system: BP8 (AhR −/−) hepatoma cells; assay: Cell viability MTT assay, BP8 cells; type: cell-based, mouse; conditions: range of concentrations, 24 and 48 hr
CDK1/cyclin B = CDK1/cyclin B kinase assay (histone H1, 15 μM ATP); type: biochemical, starfish (Marthasterias glacialis)
[3] = system: GSK-3α (Tyr276) / GSK-3β (Tyr216); assay: Tyrosine phosphorylation of GSK-3 in SH-SY5Y cells (Western blot); type: cell-based, human; conditions: 1 μM, 12 hr
Description: GSK-3α and GSK-3β activity is enhanced by the phosphorylation of a specific tyrosine residue (Tyr276 and Tyr216, respectively) (Hughes et al. (1993) EMBO J. 12: 803-808; Dajani et al. (2003) EMBO J. 22: 494-501). The tyrosine kinase responsible for this phosphorylation in mammals is unknown, but there is some evidence that it indirectly depends on GSK-3 activity (Bhat et al. (2000) Proc. Natl. Acad. Sci. U.S.A. 97: 11074-11079; Shaw et al. (1997) FEBS Lett. 416: 307-311). […] SH-SY5Y cells were exposed to IO, MeIO, BIO and MeBIO for 12 hr and the phosphorylation of Tyr276 (GSK-3α) and Tyr216 (GSK-3β) was estimated by Western blotting with phospho-specific antibodies. […] This was accompanied by an increased level in total GSK-3β, total β-catenin, and dephospho-&catenin.

AhR [4] = molecular target: T1, AhR (Mus musculus, UniProt P30561); conditions: read-out: EC50 AhR (hepatoma cell line); Table 4; EGFP at 24 hours
T1 sequence (P30561 1-848): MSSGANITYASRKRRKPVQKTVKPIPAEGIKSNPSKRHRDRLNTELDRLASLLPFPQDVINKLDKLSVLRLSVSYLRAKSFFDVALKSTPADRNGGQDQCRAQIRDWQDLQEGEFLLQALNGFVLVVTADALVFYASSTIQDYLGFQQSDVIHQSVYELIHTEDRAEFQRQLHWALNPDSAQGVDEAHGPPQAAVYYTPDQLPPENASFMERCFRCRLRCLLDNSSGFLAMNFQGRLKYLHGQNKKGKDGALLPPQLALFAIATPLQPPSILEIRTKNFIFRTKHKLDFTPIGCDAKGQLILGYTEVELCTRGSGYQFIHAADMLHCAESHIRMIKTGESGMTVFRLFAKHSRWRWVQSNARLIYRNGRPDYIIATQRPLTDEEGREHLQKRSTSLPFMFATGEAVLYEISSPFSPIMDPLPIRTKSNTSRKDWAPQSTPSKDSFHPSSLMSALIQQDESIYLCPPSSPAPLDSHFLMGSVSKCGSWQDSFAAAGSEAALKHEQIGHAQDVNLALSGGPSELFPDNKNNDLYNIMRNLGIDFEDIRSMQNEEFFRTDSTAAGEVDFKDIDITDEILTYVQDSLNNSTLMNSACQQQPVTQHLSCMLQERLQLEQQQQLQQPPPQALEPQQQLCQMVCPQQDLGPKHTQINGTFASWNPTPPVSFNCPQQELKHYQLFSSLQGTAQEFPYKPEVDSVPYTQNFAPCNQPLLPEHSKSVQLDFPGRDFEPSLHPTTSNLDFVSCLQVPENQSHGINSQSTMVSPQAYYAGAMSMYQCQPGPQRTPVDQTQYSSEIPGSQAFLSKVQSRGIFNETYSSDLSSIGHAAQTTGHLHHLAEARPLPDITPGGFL

[5] = system: BP8 (AhR −/−) hepatoma cells; assay: FACS cell cycle analysis, BP8 cells; type: cell-based, mouse; conditions: 10 μM indirubins or 100 nM TCDD, 24 hr
Description: Flow cytometry analysis (Coulter EPIX XL2, Beckman, Calif., USA) of cellular DNA content was performed on ethanol-fixed cell suspensions after ribonuclease A III treatment (Sigma) and propidium iodide (Sigma) staining, as previously described (French et al. (1985) Cytometry 6: 47-53). Percentages of cells in G0/G1, S and G2/M phases of cell cycle were then calculated on the basis of DNA distribution histograms provided by the software manufacturer.
Both 5L and BP8 cell lines were treated with 10 μM IO, MeIO, BIO, MeBIO or 100 nM TCDD for 24 hr.

GSK-3 [6] = assay: β-catenin phosphorylation on GSK-3 specific sites in COS-1 cells (Western blot); conditions: 5 μM indirubins or 20 mM LiCl, 24 hrs
GSK-3α/β = GSK-3α/β kinase assay (GS-1 peptide, 15 μM ATP); type: biochemical, porcine
AhR [7] = molecular target: T2, AhR (Homo sapiens, UniProt P35869)
AhR [8] = assay: AhR nuclear translocation in Hepa-1 and ARNT mutant cells (immunofluorescence); type: cell-based, mouse; conditions: 25 μM, 90 min, Hepa-1 wild-type and ARNT mutant cells
Xenopus laevis embryos = assay: Maternal Wnt pathway activation in Xenopus laevis embryos (phenotype, RT-PCR of animal caps); type: in vivo; conditions: for embryo phenotype (anteriorization): BIO 5-50 μM, MeBIO 50 μM, LiCl 0.3 M, treated before stage 8, tadpole stage
Description: Xenopus laevis embryos obtained by in vitro fertilization were cultured in 0.1×MMR and staged (Nieuwkoop & Faber (1967) Normal table of Xenopus Laevis (North Holland Publishing Co, Amsterdam, The Netherlands)). […] For experiments with BIO, the reagent was added to the indicated final concentrations at the 4 cell stage and washed away at stage 8. Embryos were subsequently allowed to develop to tadpole stage. RNA injections were performed at 2-4 cell stage with the indicated amounts of in vitro transcribed RNA in a […] volume. Animal caps were dissected at blastula (stage 9) and cultured to neurula (stage 18) for RT-PCR analysis-. The RNA expression vectors were pCS2+DN Xtcf-3, encoding amino acids 88-553 of Xtcf-3 (Vonica et al. (2000) Dev. Biol. 217: 230-243), MTPA2 (Zeng et al. […] RT-PCR was performed as previously described (Chang et al. (1997) Development 124: 827-837), with the following oligonucleotides: for ODC sense [NT] and antisense 5° [NT] 3'; for nrp1 sense [NT] and antisense [NT]; for XAG1 sense [NT] and antisense 5° [NT] 3'; for en2 sense 5° [NT] 3' and antisense [NT]; for Xhoxb9 sense [NT] and antisense [NT]; for chordin sense 5° [NT] 3' and antisense [NT]. Phenotypes of embryos treated with BIO or LiCl were compared (FIG. 8B-G). […] The Wnt pathway can ectopically induce dorsal genes, like the direct Wnt target siamois ([…] et al. (1996) Development 122: 3055-3065), and the Spemann organizer marker and siamois target chordin (Kessler (1997) Proc. Natl. Acad. Sci. U.S.A. 94: 13017-22). […] Another outcome of ectopic Wnt pathway activation in Xenopus is the indirect induction of neural tissue in animal cap explants (Baker et al. (1999) Genes Dev. 13: 3149-3159). Explants from embryos treated with LiCl (FIG. 8I, lanes 4, 5), BIO (lanes 6, 7), or injected with RNA for the neuralizing factor noggin (lane 3), were compared by RT-PCR for various neural and anterior markers.

[9] = system: 5L (AhR +/+) hepatoma cells; assay: Cell viability MTT assay, 5L cells; type: cell-based, mouse; conditions: range of concentrations, 24 and 48 hr
[10] = system: p27^KIP1 in 5L (AhR +/+) cells; assay: p27KIP1 expression by Western blotting, 5L cells; type: cell-based, mouse; conditions: 10 μM indirubins or 0.1 μM TCDD, 24 hr
[11] = system: 5L (AhR +/+) hepatoma cells; assay: FACS cell cycle analysis, 5L cells; type: cell-based, mouse; conditions: 10 μM indirubins or 100 nM TCDD, 24 hr
[12] = Solubility (qualitative remark); conditions: relative to parent indirubins / 3′-oximes
AhR [13] = molecular target: T2, AhR; assay: Yeast AhR reporter assay (β-galactosidase)
[14] = Table 4, read-out: IC50 CDK1/cycin B
[15] = Table 5, read-out: IC50 CDK1/cyclin B
[16] = Table 1, read-out: IC50 GSK-3 α/β
[17] = Table 5, read-out: IC50 GSK-3α/β
[18] = Table 7, GSK-3, read-out: IC50exp

CDK5/p25, sequence (Q00535 whole entry, species assumed): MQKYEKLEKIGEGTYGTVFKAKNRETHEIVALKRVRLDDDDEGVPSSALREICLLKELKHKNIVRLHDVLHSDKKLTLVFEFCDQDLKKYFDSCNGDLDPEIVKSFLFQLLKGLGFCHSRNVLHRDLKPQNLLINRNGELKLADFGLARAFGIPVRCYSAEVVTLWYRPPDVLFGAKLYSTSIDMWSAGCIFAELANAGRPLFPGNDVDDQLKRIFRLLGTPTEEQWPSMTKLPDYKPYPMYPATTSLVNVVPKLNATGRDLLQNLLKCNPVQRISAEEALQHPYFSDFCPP
CDK5/p25, sequence (Q15078 99-307 partner limits assumed, species assumed): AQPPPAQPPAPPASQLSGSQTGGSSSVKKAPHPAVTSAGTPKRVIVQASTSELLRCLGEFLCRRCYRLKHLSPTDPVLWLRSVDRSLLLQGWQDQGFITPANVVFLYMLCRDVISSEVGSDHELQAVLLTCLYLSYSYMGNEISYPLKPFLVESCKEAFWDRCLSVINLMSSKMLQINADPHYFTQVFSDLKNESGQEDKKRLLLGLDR
T2 sequence (P35869 11-848): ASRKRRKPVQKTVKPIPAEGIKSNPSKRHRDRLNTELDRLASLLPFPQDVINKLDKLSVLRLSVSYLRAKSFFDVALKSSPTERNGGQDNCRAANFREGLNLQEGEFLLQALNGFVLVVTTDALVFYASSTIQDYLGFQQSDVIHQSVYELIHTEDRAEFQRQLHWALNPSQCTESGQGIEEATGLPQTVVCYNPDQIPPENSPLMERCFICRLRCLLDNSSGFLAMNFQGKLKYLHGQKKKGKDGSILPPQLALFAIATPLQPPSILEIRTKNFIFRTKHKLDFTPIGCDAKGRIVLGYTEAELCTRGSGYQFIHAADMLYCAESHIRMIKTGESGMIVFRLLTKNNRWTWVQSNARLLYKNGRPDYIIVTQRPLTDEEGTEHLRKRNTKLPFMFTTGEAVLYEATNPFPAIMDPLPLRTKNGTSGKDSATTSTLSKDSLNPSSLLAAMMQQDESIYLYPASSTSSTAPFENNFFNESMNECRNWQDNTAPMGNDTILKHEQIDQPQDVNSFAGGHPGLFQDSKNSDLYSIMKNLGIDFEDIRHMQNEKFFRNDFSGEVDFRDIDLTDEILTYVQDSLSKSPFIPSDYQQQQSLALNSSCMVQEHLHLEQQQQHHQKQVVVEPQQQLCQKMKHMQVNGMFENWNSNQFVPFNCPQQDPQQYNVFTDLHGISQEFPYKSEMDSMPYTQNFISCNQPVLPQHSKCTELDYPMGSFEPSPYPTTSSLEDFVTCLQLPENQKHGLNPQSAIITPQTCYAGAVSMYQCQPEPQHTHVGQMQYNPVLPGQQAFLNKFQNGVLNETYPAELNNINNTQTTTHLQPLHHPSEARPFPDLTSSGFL
T2 sequence (P27540 whole entry partner): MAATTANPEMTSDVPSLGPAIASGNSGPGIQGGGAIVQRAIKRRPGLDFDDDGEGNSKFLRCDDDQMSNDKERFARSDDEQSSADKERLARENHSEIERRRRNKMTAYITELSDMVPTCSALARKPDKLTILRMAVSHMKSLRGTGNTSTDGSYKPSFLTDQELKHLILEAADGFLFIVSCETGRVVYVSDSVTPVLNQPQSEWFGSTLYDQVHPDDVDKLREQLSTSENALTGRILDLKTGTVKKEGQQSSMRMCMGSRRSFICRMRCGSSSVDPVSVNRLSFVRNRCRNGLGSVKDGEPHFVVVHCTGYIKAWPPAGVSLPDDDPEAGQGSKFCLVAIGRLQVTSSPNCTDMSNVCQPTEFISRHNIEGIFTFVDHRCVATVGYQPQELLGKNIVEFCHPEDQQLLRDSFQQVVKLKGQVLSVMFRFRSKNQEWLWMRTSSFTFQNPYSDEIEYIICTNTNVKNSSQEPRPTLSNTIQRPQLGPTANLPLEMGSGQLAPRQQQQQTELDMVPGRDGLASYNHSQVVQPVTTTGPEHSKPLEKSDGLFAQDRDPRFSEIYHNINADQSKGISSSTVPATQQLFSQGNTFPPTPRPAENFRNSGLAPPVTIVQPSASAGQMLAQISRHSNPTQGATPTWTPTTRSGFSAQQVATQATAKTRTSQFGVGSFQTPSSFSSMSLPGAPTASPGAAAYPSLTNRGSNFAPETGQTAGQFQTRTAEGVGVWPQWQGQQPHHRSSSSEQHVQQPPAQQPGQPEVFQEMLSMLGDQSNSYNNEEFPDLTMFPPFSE
CDK5/p35, sequence (Q00535 whole entry, species assumed): as the sequence (Q00535 whole entry, species assumed) above
CDK5/p35, sequence (Q15078 whole entry partner, species assumed): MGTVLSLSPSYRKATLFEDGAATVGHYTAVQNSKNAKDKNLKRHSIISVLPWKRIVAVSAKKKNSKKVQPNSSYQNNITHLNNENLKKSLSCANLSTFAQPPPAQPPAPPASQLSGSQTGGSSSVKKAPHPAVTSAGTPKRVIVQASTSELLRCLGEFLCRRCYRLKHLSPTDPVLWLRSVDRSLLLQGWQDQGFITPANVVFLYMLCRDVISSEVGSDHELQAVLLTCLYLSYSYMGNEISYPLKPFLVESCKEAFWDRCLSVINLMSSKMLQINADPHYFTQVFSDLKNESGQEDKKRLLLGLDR

O=C1Nc2ccc(S(=O)(=O)O)cc2/C1=C1/Nc2ccccc2C1=O [I5S, indirubin-5-sulphonate]
IC50 (CDK5/p35): 60 nM

CN1C(=O)C(=C2Nc3ccccc3C2=NO)c2ccc(Br)cc21 [13c, 6-Bromo-1-methylindirubin-3′-oxime]
IC50 (CDK5/p25; Table 1): > 100000 nM | IC50 (CDK5/p25; Table 5): > 100000 nM | β-catenin stabilization (GSK-3 [1]): inactive | survival of BP8 cells (MTT) [2]: apparently not affected | IC50 (CDK1/cyclin B; [14]): 92000 nM | IC50 (CDK1/cyclin B; [15]): 92000 nM | level of tyrosine phosphorylation of both GSK-3 isoforms [3]: None of these changes were observed | EC50 (AhR [4]): 93 nM | accumulation of BP8 cells in G1 phase [5]: but not of AhR −/− cells (BP8) | unphosphorylated β-catenin level (GSK-3 [6]): neither the kinase-inactive MeBIO nor IO, led to a major increase | IC50 (GSK-3α/β; [16]): 44000 nM | IC50 (GSK-3α/β; Table 4, read-out: IC50 GSK-3): 44000 nM | IC50 (GSK-3α/β; [17]): > 100000 nM | EC50 (AhR [7]): 20 nM | nuclear translocation of AhR (AhR [8]): caused redistribution of AhR to the nucleus | embryo phenotype (anteriorization) (Xenopus laevis embryos): remains without effect | survival of 5L cells (MTT) [9]: apparently not affected | p27^KIP1 expression in 5L cells [10]: very effective p27^KIP1 inducers | accumulation of 5L cells in G1 phase [11]: very striking accumulation

O=C1Nc2cc(Br)ccc2/C1=C1/Nc2ccccc2/C1=N\O [7a]
β-catenin stabilization (GSK-3 [1]): triggered a robust β-catenin stabilization in both cell lines | survival of BP8 cells (MTT) [2]: equally sensitive to IO and BIO | level of tyrosine phosphorylation of both GSK-3 isoforms [3]: dramatically reduced | unphosphorylated β-catenin level (GSK-3 [6]): major increase | solubility (in words) [12]: increased solubility | nuclear translocation of AhR (AhR [8]): triggered ARNT-independent nuclear redistribution of AhR | embryo phenotype (anteriorization) (Xenopus laevis embryos): phenocopies the LiCl effect in a dose-dependent manner | induction of siamois and chordin in animal cap explants (RT-PCR) (Xenopus laevis embryos; Li+ 0.3 M, BIO 50 μM): shows induction of both genes | effect on anterior markers otx2 and xag1 in animal cap explants (RT-PCR) (Xenopus laevis embryos; even at the lowest concentration tested (5 μM)): strongest effect on anterior markers | survival of 5L cells (MTT) [9]: equally sensitive to IO and BIO | p27^KIP1 expression in 5L cells [10]: modest, but detectable increase | accumulation of 5L cells in G1 phase [11]: modest (but detectable)

O=C1Nc2cc(Br)ccc2C1=C1Nc2cc(Br)ccc2C1=NO [13b, 6,6′-dibromo-indirubin-3′-oxime]
IC50 (CDK5/p25; Table 1): 1300 nM | IC50 (CDK5/p25; Table 5): 1300 nM | IC50 (CDK1/cyclin B; Table 1, read-out: IC50 CDK1/cyclin B): 17000 nM | IC50 (CDK1/cyclin B; [15]): 17000 nM | IC50 (GSK-3α/β; [16]): 120 nM | IC50 (GSK-3α/β; [17]): 120 nM | IC50 (GSK-3α/β; [18]): 120 nM | solubility (in words) [12]: increased solubility

O=C1Nc2ccc(Cl)cc2/C1=C1/Nc2ccccc2C1=O [compound 17, 5-chloro-indirubin, reference compound]
IC50 (CDK1/cyclin B; [14]): 280 nM | EC50 (AhR [4]): 52 nM | IC50 (GSK-3α/β; Table 4, read-out: IC50 GSK-3): 50 nM | IC50 (GSK-3α/β; [18]): 50 nM | EC50 (AhR [7]): 40 nM

O=C1Nc2ccc(I)cc2/C1=C1/Nc2ccccc2/C1=N\O [compound 19, 5-iodo-indirubin-3′-oxime, reference compound]
IC50 (CDK1/cyclin B; [14]): 25 nM | EC50 (AhR [4]): 5 nM | EC50 (AhR [7]): 50 nM | nuclear translocation of AhR (AhR [8]): triggered ARNT-independent nuclear redistribution of AhR

Clc1cc2c(cc1Cl)Oc1cc(Cl)c(Cl)cc1O2 [compound 25, 2,3,7,8-tetrachlorodibenzo-p-dioxin, reference compound]
IC50 (CDK1/cyclin B; [14]): > 15000 nM | EC50 (AhR [4]): 0.015 nM | IC50 (GSK-3α/β; Table 4, read-out: IC50 GSK-3): > 15000 nM | EC50 (AhR [13]): 25 nM | p27^KIP1 expression in 5L cells [10]: up-regulates the expression of both CYP1A1 and p27^KIP1 in the 5L | accumulation of 5L cells in G1 phase [11]: triggered an AhR-dependent arrest in G1

O=C1Nc2ccccc2/C1=C1/Nc2ccc(Br)cc2C1=O [compound 20, 5′-bromo-indirubin, reference compound]
IC50 (CDK1/cyclin B; [14]): 510 nM | EC50 (AhR [4]): 51 nM | IC50 (GSK-3α/β; Table 4, read-out: IC50 GSK-3): 350 nM | IC50 (GSK-3α/β; [18]): 350 nM | EC50 (AhR [7]): ≥ 100 nM
